US6455530B1, “2R,4S,S,S- and 2S,4R,S,S-hydroxyitraconazole” (Sepracor Inc., priority 1996, dated 2002)

Tests used:
[1] = tested on: Candida albicans; experiment: Kirby-Bauer testing (paper disk zones of inhibition); type: cell-based; details: 10 μl of 10 mg/mL solution on 7 mm paper disk, Sabouraud Dextrose agar, 30° C. for 16 hours
Method: (§1) Actively growing cultures of Candida albicans, Cryptococcus neoformens and Saccharomnyces cerevisiae were prepared as described above. The cultures were diluted to a 0.5 McFarland standard and swabbed onto a 150 mm Sabouraud Dextrose agar plates. Paper disks (7 mm) were placed onto the agar plates using a disk dispenser. Next 10 μl of 10 mg/mL solutions of each sample hydroxy-itraconazole was pipetted onto separate paper disks. The plates were then incubated at 30° C. for 16 hours. Zones of inhibition were then measured in mm. Data Represent Zones of Inhibition in mm.

[2] = tested on: Cryptococcus neoformens; experiment: as above; type: cell-based; details: 10 μl of 10 mg/mL solution on 7 mm paper disk, Sabouraud Dextrose agar, 30° C. for 16 hours
Method: as §1

[3] = tested on: Saccharomyces cerevisae; experiment: as above; type: cell-based; details: 10 μl of 10 mg/mL solution on 7 mm paper disk, Sabouraud Dextrose agar, 30° C. for 16 hours
Method: as §1

[4] = oral, daily administration; cited from earlier work

Structure (SMILES)	Zones of Inhibition, Candida albicans [1]	Zones of Inhibition, Cryptococcus neoformens [2]	Zones of Inhibition, Saccharomyces cerevisae [3]	zone of inhibition at 10000 µg/mL ([1]; Candida albicans)	zone of inhibition at 10000 µg/mL ([2]; Cryptococcus)	zone of inhibition at 10000 µg/mL ([3]; Saccharomyces)	Time at which peak plasma levels are attained [4]
C[C@H]([C@@H](C)O)n1ncn(-c2ccc(N3CCN(c4ccc(OC[C@H]5CO[C@](Cn6cncn6)(c6ccc(Cl)cc6Cl)O5)cc4)CC3)cc2)c1=O (single isomer, unassigned) [A diastereomer, (2R,4S)-4-[4-[4-[4-[[2-(2,4-Dichlorophenyl)-2-(1H-1,2,4-triazole-1-ylmethyl)-1,3-dioxolan-4-yl]methoxy]phenyl]-[-piperazinyl[phenyl]-2,4dihydro-2-[(1R*,2R*)-(2-hydroxy-1-methylpropyl)]-3H -1,2,4-triazol-3-one]	23 mm	34 mm	23 mm				
CCC(C)n1ncn(-c2ccc(N3CCN(c4ccc(OCC5COC(Cn6cncn6)(c6ccc(Cl)cc6Cl)O5)cc4)CC3)cc2)c1=O (racemic) [± Itraconazole, 4-[4-[4-[4-[[2-(2,4-dichlorophenyl)-2-(1H-1,2,4-triazol-1-ylmethyl)-1,3-dioxolan-4-yl]methoxy]phenyl]-1-piperazinyl]phenyl]-2,4dihydro-2-(1-methylpropyl)-3H-1,2,4triazol-3-one, reference compound]				17 mm	22 mm	15 mm	15 days
C[C@H]([C@@H](C)O)n1ncn(-c2ccc(N3CCN(c4ccc(OC[C@@H]5CO[C@@](Cn6cncn6)(c6ccc(Cl)cc6Cl)O5)cc4)CC3)cc2)c1=O (single isomer, unassigned) [B diastereomer, (2S,4R)-4-[4-[4-[4-[[2-(2,4-Dichlorophenyl)-2-(1H-1,2,4,-triazole-1-ylmethyl)-1,3-dioxolan-4-yl}methoxy]phenyl]-1-piperazinyl]phenyl]-2,4-dihydro-2-[(1R*,2R*)-(2-hydroxy-1-methylpropyl)-3H-1,2,4-triazol-3-one]	27 mm	32 mm	25 mm				
